What was measured:
[1] = Excretion of radioactivity after [14C]-labeled bifeprunox; conditions: single oral dose of [14C]-labeled bifeprunox
[2] = Lipid profile and fasting glucose, Clinical Study Four; assay type: in vivo, human
Description: (§1) METHODOLOGY: This study was a multinational, multicenter, randomized, double-blind, parallel-group, placebo-controlled, fixed-dose study. The study consisted of a 3- to 6-day antipsychotic-free run-in period, after which patients were randomised to 6 months of double-blind treatment with fixed doses of bifeprunox (20 mg/day (BX20) or 30 mg/day (BX30)) or placebo (PBO). Patients allocated to the BX groups were up-titrated from 0.25 mg/day over 7 days (BX20) or 8 days (BX30), and then continued on these doses for the remainder of the study. […] At predetermined time points, blood samples were obtained for drug concentration analysis of BX and its major metabolites (3′- and 4′-sulfate conjugates of BX), and pharmaco-economic assessments were performed.

[3] = tested on: patients with chronic schizophrenia; assay: PANSS responders (reduction in PANSS total score), Clinical Study Four; assay type: in vivo, human; conditions: FAS, LOCF
Description: as §1
CLINICAL STUDY FOUR: The proportion of patients with a ≧25%, ≧35%, ≧45%, or ≧55% reduction in PANSS total score relative to baseline at each visit (PANSS responders) is shown by LOCF (FIG. 4).

[4] = tested on: patients with chronic schizophrenia; assay: Adverse events incl. EPS TEAEs, Clinical Study Four; assay type: in vivo, human
Description: OTHER SECONDARY OBJECTIVE: To evaluate the long-term safety and tolerability of bifeprunox versus placebo.
as §1

[5] = tested on: patients with chronic schizophrenia; assay: CGI-I score and CGI-I responders (score 2 or less), Clinical Study Four; assay type: in vivo, human; conditions: FAS; for proportion of patients with a CGI-I score ≦2 / CGI-I, Adjusted mean values (LS mean): LOCF; for CGI-I, Adjusted mean values (LS mean): adjusted mean values instead of change from baseline
Description: as §1
CLINICAL STUDY FOUR: The proportion of patients with a CGI-I score ≦2 at each visit (CGI-I responders; FAS, LOCF) is show below in FIG. 5.

[6] = BX20 (bifeprunox 20 mg), Fasting
[7] = BX20 (bifeprunox 20 mg), Non-fasting
[8] = BX30 (bifeprunox 30 mg), Fasting
[9] = BX30 (bifeprunox 30 mg), Non-fasting

## O=c1[nH]c2cccc(N3CCN(Cc4cccc(-c5ccccc5)c4)CC3)c2o1 [Bifeprunox, 7-[4-([1,1′-biphenyl]-3-ylmethyl)-1-piperazinyl]-2(3H)-benzoxazolone]
[1]
  radioactivity excreted in the feces: 74%
  radioactivity excreted in the urine: 13%
[2]; BX20
  adjusted mean fasting glucose increase from baseline to Month 6: 0.13 mmol/L
[2]; [6]
  Cholesterol, total, Mean change from baseline to Month 6: -0.18 mmol/L
  HDL, direct, Mean change from baseline to Month 6: 0.07 mmol/L
  LDL, calculated, Mean change from baseline to Month 6: -0.1 mmol/L
  Triglycerides, Mean change from baseline to Month 6: -0.08 mmol/L
  VLDL, calculated, Mean change from baseline to Month 6: -0.03 mmol/L
[2]; [7]
  Cholesterol, total, Mean change from baseline to Month 6: -0.42 mmol/L
  HDL, direct, Mean change from baseline to Month 6: 0.12 mmol/L
  LDL, calculated, Mean change from baseline to Month 6: -0.35 mmol/L
  Triglycerides, Mean change from baseline to Month 6: -0.41 mmol/L
  VLDL, calculated, Mean change from baseline to Month 6: -0.19 mmol/L
[2]; BX20, fasting
  adjusted mean HDL cholesterol change from baseline to Month 6: 0.07 mmol/L
  adjusted mean triglycerides change from baseline to Month 6: -0.16 mmol/L
[2]; BX20, non-fasting
  adjusted mean HDL cholesterol change from baseline to Month 6: 0.08 mmol/L
  adjusted mean triglycerides change from baseline to Month 6: -0.21 mmol/L
[2]; BX30
  adjusted mean fasting glucose increase from baseline to Month 6: 0.09 mmol/L
[2]; [8]
  Cholesterol, total, Mean change from baseline to Month 6: -0.22 mmol/L
  HDL, direct, Mean change from baseline to Month 6: 0.05 mmol/L
  LDL, calculated, Mean change from baseline to Month 6: -0.12 mmol/L
  Triglycerides, Mean change from baseline to Month 6: -0.40 mmol/L
  VLDL, calculated, Mean change from baseline to Month 6: -0.16 mmol/L
[2]; [9]
  Cholesterol, total, Mean change from baseline to Month 6: -0.10 mmol/L
  HDL, direct, Mean change from baseline to Month 6: 0.08 mmol/L
  LDL, calculated, Mean change from baseline to Month 6: -0.12 mmol/L
  Triglycerides, Mean change from baseline to Month 6: 0.06 mmol/L
  VLDL, calculated, Mean change from baseline to Month 6: 0.03 mmol/L
[2]; BX30, fasting
  adjusted mean HDL cholesterol change from baseline to Month 6: 0.07 mmol/L
  adjusted mean triglycerides change from baseline to Month 6: -0.37 mmol/L
[2]; BX30, non-fasting
  adjusted mean HDL cholesterol change from baseline to Month 6: 0.08 mmol/L
  adjusted mean triglycerides change from baseline to Month 6: -0.03 mmol/L
[3]; listed as BX20
  proportion of patients with at least a 25% reduction in PANSS total score versus PBO: statistically significantly larger than that in the PBO group from Week 9 onwards
[3]; listed as BX30
  proportion of patients with at least a 25% reduction in PANSS total score versus PBO: statistically significantly larger than that in the PBO group at Month 5 only
[4]; BX20
  patients with TEAEs related to EPS that led to withdrawal: 4 patients
  weight decreased reported as a TEAE: 8%
[4]; BX20, APTS
  AKATHISIA, %: (6.9) %
  Choreoathetosis, %: (1.9) %
  DYSKINESIA, %: (1.3) %
  Dystonia, %: (0.6) %
  EPS TEAEs: MUSCULOSKELETAL AND CONNECTIVE TISSUE DISORDERS, %: (0.6) %
  EPS TEAEs: NERVOUS SYSTEM DISORDERS, %: (10.1) %
  EXTRAPYRAMIDAL DISORDER, %: (0.6) %
  Muscle rigidity, %: (0.6) %
  Patients with EPS TEAEs, %: (10.1) %
  TREMOR, %: (0.6) %
  proportion of patients with TEAEs related to EPS: 10%
[4]; BX30
  patients with TEAEs related to EPS that led to withdrawal: 9 patients
  weight decreased reported as a TEAE: 8%
  weight increased reported as a TEAE: 1.2%
[4]; BX30, APTS
  AKATHISIA, %: (4.7) %
  Athetosis, %: (0.6) %
  Choreoathetosis, %: (0.6) %
  DYSKINESIA, %: (6.4) %
  EPS TEAEs: MUSCULOSKELETAL AND CONNECTIVE TISSUE DISORDERS, %: (0.6) %
  EPS TEAEs: NERVOUS SYSTEM DISORDERS, %: (14.5) %
  EXTRAPYRAMIDAL DISORDER, %: (2.9) %
  Muscle rigidity, %: (0.6) %
  Patients with EPS TEAEs, %: (14.5) %
  TREMOR, %: (2.9) %
  proportion of patients with TEAEs related to EPS: 15%
[5]; BX20, Month 6
  proportion of patients with a CGI-I score ≦2: 22%
[5]; BX20, Week 6
  proportion of patients with a CGI-I score ≦2: 17%
[5]; BX30, Month 6
  proportion of patients with a CGI-I score ≦2: 20%
[5]; BX30, Week 6
  proportion of patients with a CGI-I score ≦2: 19%
[5]; Month 6, ANCOVA
  CGI-I, Adjusted mean values (LS mean): 4.0
[5]; Week 6, ANCOVA, listed as BX20
  CGI-I, Adjusted mean values (LS mean): 3.8
[5]; Week 6, ANCOVA, listed as BX30
  CGI-I, Adjusted mean values (LS mean): 3.7
[5]; both BX doses, ANCOVA
  mean CGI-I scores versus PBO, per-visit LOCF analysis: statistically significantly superior to PBO from Week 6 onwards
